Changes are numbered by the printed parent chain.

The record followed here is publication PMC11427828, “The role of chloroplast SRP54 domains and its C-terminal tail region in post- and co-translational protein transport in vivo” (Journal of Experimental Botany, 2024).

The target of test [1] is T1, cpSRP54–His (recombinant mature cpSRP54) (Arabidopsis thaliana, UniProt P37107).
T1 construct: gene FFC; mature protein, residues 79-564 (transit peptide removed), C-terminal His6, E. coli Rosetta (DE3), EDTA-treated then SEC in Mg buffer
T1 sequence (P37107 79-564): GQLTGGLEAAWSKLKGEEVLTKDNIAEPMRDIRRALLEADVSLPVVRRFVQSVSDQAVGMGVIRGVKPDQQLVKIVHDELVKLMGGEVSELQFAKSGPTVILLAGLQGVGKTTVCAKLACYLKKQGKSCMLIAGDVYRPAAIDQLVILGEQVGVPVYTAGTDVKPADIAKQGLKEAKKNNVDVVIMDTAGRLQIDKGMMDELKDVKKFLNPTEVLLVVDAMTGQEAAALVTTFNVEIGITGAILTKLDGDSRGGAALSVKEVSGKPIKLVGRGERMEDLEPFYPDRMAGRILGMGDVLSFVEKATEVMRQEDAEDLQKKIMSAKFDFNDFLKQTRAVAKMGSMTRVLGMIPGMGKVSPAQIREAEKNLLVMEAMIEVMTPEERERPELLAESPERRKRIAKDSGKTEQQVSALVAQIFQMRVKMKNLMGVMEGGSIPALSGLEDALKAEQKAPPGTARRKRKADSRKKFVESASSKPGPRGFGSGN
Kind of test: isothermal titration calorimetry. The test is classed as binding. Conditions: read-out: dissociation constant. (In general: ITC needs no label: the signal is the heat of the interaction.)

Test [2] deals with T2, cpSRP54–His (recombinant mature cpSRP54) (Arabidopsis thaliana, UniProt P37107, Q185R).
T2 construct: gene FFC; mature protein, residues 79-564 (transit peptide removed), C-terminal His6, E. coli Rosetta (DE3), EDTA-treated then SEC in Mg buffer
T2 sequence (P37107 79-564 Q185R): T1 sequence (P37107 79-564) with Q107R
Kind of test: isothermal titration calorimetry. The test is classed as binding. Conditions: read-out: dissociation constant.

On to `Nc1nc2c(ncn2[C@@H]2O[C@H](COP(=O)(O)OP(=O)(O)O)[C@@H](O)[C@H]2O)c(=O)[nH]1` [GDP], for which the Kd was 30.2 µM in test [1] and 30.3 µM in test [2].
As for `Nc1nc2c(ncn2[C@@H]2O[C@H](COP(=O)(O)OP(=O)(O)OP(=O)(O)O)[C@@H](O)[C@H]2O)c(=O)[nH]1` [GTP], the Kd in test [1] was determined as 53.4 µM; in test [2] it was 17.3 µM.
